The source of these data is PMC6006285, “Specific stereochemistry of OP-1074 disrupts estrogen receptor alpha helix 12 and confers pure antiestrogenic activity” (Nature Communications, 2018).

In one experiment the target is T1, wild type ERα (Homo sapiens, UniProt P03372).
T1 construct: expressed in transfected cells; host or cells: HeLa
T1 sequence (P03372 1-595): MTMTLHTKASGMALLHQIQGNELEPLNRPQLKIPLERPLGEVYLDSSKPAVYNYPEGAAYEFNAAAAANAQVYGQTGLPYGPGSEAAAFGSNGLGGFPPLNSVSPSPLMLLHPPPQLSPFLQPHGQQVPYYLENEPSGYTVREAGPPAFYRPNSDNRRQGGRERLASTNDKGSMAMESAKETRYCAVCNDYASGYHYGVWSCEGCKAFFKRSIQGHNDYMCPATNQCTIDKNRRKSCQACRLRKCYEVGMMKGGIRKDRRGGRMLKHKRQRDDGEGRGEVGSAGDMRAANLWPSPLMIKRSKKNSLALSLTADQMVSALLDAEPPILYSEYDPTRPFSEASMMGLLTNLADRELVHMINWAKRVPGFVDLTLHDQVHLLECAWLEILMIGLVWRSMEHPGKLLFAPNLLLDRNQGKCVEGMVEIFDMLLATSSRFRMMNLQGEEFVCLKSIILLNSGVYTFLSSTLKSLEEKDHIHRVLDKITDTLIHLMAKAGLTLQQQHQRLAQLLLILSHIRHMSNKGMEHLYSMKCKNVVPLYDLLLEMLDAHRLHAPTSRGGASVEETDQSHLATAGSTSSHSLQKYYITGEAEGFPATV
Nature of the experiment: ERE3X-TATA-Luc reporter in HeLa cells transfected with ERα. Type of experiment: cell-based. As to conditions: 1 nM E2, 22 h, read-out: IC50 inhibition of E2-stimulated ERα transcriptional activity. The text has this:
Supplementary Figure 2: Specificity of OP-1074
Supplementary Figure 2. OP-1074 is specific for ERα and ERβ. A, OP-1074 inhibits E2-stimulated ERα and ERβ mediated transcription. HeLa cells were transfected with an estrogen responsive reporter gene, ERE3X-TATA-Luc, along with wild type ERα or ERβ, and treated […]
Shown is the mean luciferase activity
Luciferase activity (% Dex)
Luciferase activity (% MPA)
Luciferase activity (% R1881)
(1 picture or pasted object on this page, not shown here) […]
representative experiment. […]
receptor (AR, (B)), glucocorticoid receptor (GR, (C)), and the B-isoform of the progesterone receptor (PR-B, (D)). HeLa cells were transfected with the designated wild type receptor along with reporter gene PRE3X-TATA-Luc, which is promiscuously activated with known agonists specific for each receptor: R1881 for AR, dexamethasone (Dex) for GR, and medroxyprogesterone acetate (MPA) for PR-B. Each receptor was also dosed with one concentration of known antagonist for each receptor: 32 nM bicalutamide for AR, and 500 nM RU486 for GR and PR. Transfected cells were treated with the designated ligands for 22 hours and luciferase activity assayed. Shown are representative experiments, independently performed at least 3 times. Note that curves for agonists for each receptor were performed in separate experiments. […]

Experiment [1] has as its target T2, Estrogen Receptor α LBD (ERα) (Homo sapiens, UniProt P03372).
T2 construct: 2 nM biotinylated Estrogen Receptor α LBD (ERα) was incubated; biotin (biotinylated)
T2 sequence (P03372 311-547 limits assumed): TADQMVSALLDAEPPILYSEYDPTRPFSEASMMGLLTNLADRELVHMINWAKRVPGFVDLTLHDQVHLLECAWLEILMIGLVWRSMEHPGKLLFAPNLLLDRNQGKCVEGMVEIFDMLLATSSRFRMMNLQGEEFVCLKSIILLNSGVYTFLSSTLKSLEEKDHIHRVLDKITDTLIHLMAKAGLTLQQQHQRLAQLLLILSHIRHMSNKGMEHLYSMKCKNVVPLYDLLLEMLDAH
Nature of the experiment: Competitive ligand binding assay with [3H]-E2. The conditions noted are these: 10 nM [3H]-E2 tracer, 2 nM biotinylated ERα LBD; representative experiment. The method, then: Experimental data points are mean + /− s.e.m. of triplicate samples in a representative experiment. […] Experimental data points are mean + /− s.d. of triplicate samples in a representative experiment
Triplicate reactions were vortexed and 100 μL was added in triplicate to a 96-well streptavidin flashplate (Perkin Elmer #SMP103001PK), which incubated overnight at 4 °C prior to reading.

Each structure is given as a SMILES string. Values joined by “and” are separate entries in the source; they are usually repeats but may differ in a detail not shown here. Identical values can stand only once.

`CC1=C(c2ccc(O)cc2)[C@H](c2ccc(OCCN3CC[C@@H](C)C3)cc2)Oc2cc(O)ccc21` [OP-1074]: the half-inhibitory concentration (IC50) at wild type ERα was 1.6 nM and 1.7 nM; in experiment [1] it was 7 nM and 7.03 nM.

One may read the IC50 as the concentration that inhibits the measured activity by half.
